# Measurements published in publication PMC5862408, “CCR2 antagonism leads to marked reduction in proteinuria and glomerular injury in murine models of focal segmental glomerulosclerosis (FSGS)” (PLoS ONE, 2018).
# Values joined by “and” are separate entries in the source; they are usually repeats but may differ in a detail not shown here. Identical values can stand only once.
# Tests used:
# [1] = test system: diabetic nephropathy patients; conditions: 52 weeks of treatment; cited from earlier work
# [2] = test system: 5/6 nephrectomized 129X1/SvJ mice; test: 5/6 nephrectomy model (comparison with ET1/AT1 dual inhibitor); type: in vivo, mouse; conditions: for UAER / UACR: mean ± SEM; for UACR (mg/mg) at Week 1 / UACR (mg/mg) at Week 4 / UAER (mg/day) at Week 1 / UAER (mg/day) at Week 2 / UAER (mg/day) at Week 4: individual mice; for UACR: CCX872 90 mg/kg s.c. once daily, RAAS blocker 5 mg/kg orally once daily, Sparsentan 90 mg/kg orally twice daily
# Method: (§1) Chemotaxis, calcium mobilization, and radio-ligand binding assays were conducted as previously described. Inhibition values (IC50) were calculated using non-linear regression with a one-site competition model (GraphPad Prism, GraphPad Software, La Jolla, CA). Urinary albumin was measured by ELISA (Bethyl Labs, Montgomery, TX). Urinary and serum creatinine was measured by LC-MS/MS at ChemoCentryx. The urinary albumin excretion rate (UAER) was calculated as micrograms per 24 h. Blood urea nitrogen (BUN) was measured by Antech Diagnostics (Morrisville, NC). Serum cystatin C was measured by ELISA (R&D Systems, Minneapolis, MN). The albumin to creatinine ratio (ACR) was calculated as micrograms of albumin per milligram of creatinine.
# (§2) 5/6 nephrectomy mice on the 129X1/SvJ background were obtained from Jackson Laboratories, and were received at ChemoCentryx after the surgery was performed at JAX. Under isoflurane anesthesia, two-thirds of the left kidney mass was removed at 5–6 weeks of age. Then, after 7 to 10 days, a right unilateral nephrectomy was performed. The mice were fed a standard chow and had free access to water. Three weeks after the 5/6 nephrectomy, the mice were grouped to ensure a similar starting UAER in each treatment group. CCX872 or its vehicle were dosed subcutaneously once daily formulated in 1% HPMC. The RAAS blocker Candesartan (AK Scientific, Union City, CA) and its vehicle were dosed orally once daily at 5 mg/kg formulated in water. Sparsentan, the dual-acting receptor antagonist for endothelin (A type) and angiotensin II receptors (Type 1) was synthesized at ChemoCentryx and was dosed orally twice daily at 90 mg/kg formulated in 1% HPMC. The mice were housed individually in metabolic cages for quantitative collection of urinary albumin and creatinine.
# Fig 4 Relative efficacy of CCR2, RAAS, and endothelin receptor blockade in the 5/6 nephrectomy model as assessed by UACR (mg/mg). Mice underwent a 5/6 nephrectomy as described in Methods. Three weeks post-surgery the mice were randomized to the indicated groups for the study period of 4 weeks. Urine was collected for measurement of UACR at the indicated time points, as described in Methods. Error bars represent standard error of the mean. N = 10/group at week 1, and N = 6 at week 4. p values were calculated between each drug-treated group and vehicle treated animals (asterisk), or between the CCX872/RAAS blocker combination and RAAS blocker alone (octothorpe) using student’s t-test (GraphPad Prism).
# [3] = test system: patients with FSGS; set-up: method as in announced by Retrophin; conditions: 8-week time point, 109 patients with FSGS, compared to irbesartan; ref announced by Retrophin; cited from earlier work
# [4] = test system: 5/6 nephrectomized 129X1/SvJ mice; test: 5/6 nephrectomy model (CCX872, RAAS blocker, combination); type: in vivo, mouse; conditions: for BUN / Serum Creatinine / Serum Cystatin C: terminal bleed; for UACR: CCX872 90 mg/kg s.c., RAAS blocker 5 mg/kg orally, once daily
# Method: as §1
# as §2, with “creatinine. […]” for “creatinine.”
# Fig 3 CCX872 improves renal function as assessed by UACR, serum creatinine, BUN and cystatin C in 5/6 nephrectomized mice. Mice underwent a 5/6 nephrectomy as described in Methods. Three weeks post-surgery the mice were randomized to the groups indicated above for the study period of 4 weeks. Urine was collected for measurement of albumin and creatinine at the indicated time points, and UACR was calculated as described in Methods. Serum creatinine, BUN and Cystatin C were measured at time of terminal bleed after four weeks of treatment. Error bars represent standard error of the mean. N = 10/group, and N = 6 at week 3. p values were calculated between each drug-treated group and vehicle treated animals (asterisk), or between CCX872/RAAS blocker combination and RAAS blocker alone (octothorpe) using student’s t-test (GraphPad Prism).
# [5] = test system: Adriamycin challenged female Balb/c mice; test: Adriamycin induced nephropathy model; type: in vivo, mouse; conditions: individual mice
# [6] = test system: Adriamycin challenged female Balb/c mice; test: Adriamycin induced nephropathy model; type: in vivo, mouse; conditions: for UAER: mean ± SEM
# Method: Chemotaxis, calcium mobilization, and radio-ligand binding assays were conducted as previously described. Inhibition values (IC50) were calculated using non-linear regression with a one-site competition model (GraphPad Prism, GraphPad Software, La Jolla, CA). Urinary albumin was measured by ELISA (Bethyl Labs, Montgomery, TX). Urinary and serum creatinine was measured by LC-MS/MS at ChemoCentryx. The urinary albumin excretion rate (UAER) was calculated as micrograms per 24 h. Blood urea nitrogen (BUN) was measured by Antech Diagnostics (Morrisville, NC). Serum cystatin C was measured by ELISA (R&D Systems, Minneapolis, MN). The albumin to creatinine ratio (ACR) was calculated as micrograms of albumin per milligram of creatinine. These experiments were performed using female Balb/c mice (Jackson Laboratories, Bar Harbor, Maine). The mice were kept on standard chow and had free access to water. At age of 10 weeks, 7.5 mg/kg Adriamycin (Selleck Chemicals, Houston, TX) or saline (control) was injected via tail vein in isoflurane-anesthetized animals (day 0). CCX872 and/or vehicle were dosed subcutaneously once daily at 90 mg/kg formulated in 1% HPMC. The RAAS blocker Candesartan (AK Scientific, Union City, CA) and its vehicle were dosed orally once daily at 5 mg/kg, formulated in water. All dosing started 2 hours prior Adriamycin challenge. The mice were housed individually in metabolic cages for quantitative collection of urinary albumin and creatinine.  Fig 2 CCX872 improves renal function as assessed by UACR, serum creatinine and BUN in adriamycin challenged mice. Mice were challenged with Adriamycin as described in Methods. Test compound treatment was begun one hour prior to the Adriamycin challenge. Urine was collected for measurement of UAER (S3 Table) and creatinine at the indicated time points, and UACR was calculated as described in Methods. Serum creatinine and BUN were measured at time of terminal bleed after two weeks of treatment. Error bars represent standard error of the mean. N = 10/group at week 1, and N = 8 at week 2. p values were calculated on each treated group to vehicle treated animals using student’s t-test (GraphPad Prism).
# [7] = four-week time point, mean ± SEM
# [8] = individual mice, listed as RAASi
# [9] = terminal bleed, individual mice
compound,measurement,setting,value
Cc1cnc(C(=O)c2ncnc3[nH]ccc23)c(NS(=O)(=O)c2ccc(Cl)c(C(F)(F)F)c2)c1 [CCX140-B],proteinuria,[1],decreased and sustained reduction of proteinuria
"CCCCC1=NC2(CCCC2)C(=O)N1Cc1ccc(-c2ccccc2S(=O)(=O)Nc2noc(C)c2C)c(COCC)c1 [ET1/AT2 Dual Blocker, Sparsentan]",UAER,[2]; Week 1,"2.64 ± 0.75, p=0.036 mg/day"
same,UAER,[2]; Week 2,"1.54 ± 2.15, p=0.01 mg/day"
same,UAER,[2]; Week 4,"1.15 ± 1.47, p=0.001 mg/day"
same,UACR (mg/mg) at Week 1,[2]; listed as ET1/AT1 Dual,1.081 mg/mg and 2.162 mg/mg and 2.864 mg/mg and 2.81 mg/mg and 3.047 mg/mg and 2.101 mg/mg and 2.214 mg/mg and 0.6904 mg/mg and 5.004 mg/mg
same,UACR (mg/mg) at Week 4,[2]; listed as ET1/AT1 Dual,2.388 mg/mg and 0.4973 mg/mg and 0.675 mg/mg and 0.2626 mg/mg and 0.5926 mg/mg and 2.095 mg/mg and 0.7726 mg/mg
same,UAER (mg/day) at Week 1,[2]; listed as ET1/AT1 Dual,0.8511 mg/day and 1.523 mg/day and 1.648 mg/day and 2.037 mg/day and 2.769 mg/day and 1.544 mg/day and 1.531 mg/day and 0.6428 mg/day and 5.6 mg/day
same,UAER (mg/day) at Week 2,[2]; listed as ET1/AT1 Dual,1.304 mg/day and 1.518 mg/day and 4.44 mg/day and 2.237 mg/day and 1.797 mg/day and 4.071 mg/day and 1.476 mg/day and 0.485 mg/day and 1.88 mg/day
same,UAER (mg/day) at Week 4,[2]; listed as ET1/AT1 Dual,1.009 mg/day and 1.391 mg/day and 0.6452 mg/day and 0.283 mg/day and 0.9648 mg/day and 0.8066 mg/day and 1.065 mg/day
same,UACR reduction vs vehicle,[2]; week one,93.5%
same,UACR,[2]; week one,2.44 ± 0.42 mg/mg
same,proteinuria (primary endpoint),[3],statistically significant reduction in proteinuria as compared to irbesartan
"CCOc1nc2cccc(C(=O)O)c2n1Cc1ccc(-c2ccccc2-c2nnn[nH]2)cc1 [RAAS Blocker, Candesartan]",UAER,"[4]; Week 1, mean ± SEM","8.27± 1.89, p=0.03 mg/day"
same,UAER,"[4]; Week 2, mean ± SEM","3.62 ± 1.63, p=0.03 mg/day"
same,UAER,"[4]; Week 3, mean ± SEM","3.32 ± 0.76, p<0.0001 mg/day"
same,BUN,[4]; [7],247.0 ± 16.42 mg/dL
same,Serum Creatinine,[4]; [7],2.78 ± 0.27 µg/mL
same,UAER (mg/day) at Week 1,[4]; individual mice,2.15 mg/day and 4.699 mg/day and 15.5467 mg/day and 16.4212 mg/day and 15.0186 mg/day and 0.6806 mg/day and 9.638 mg/day and 3.148 mg/day and 4.462 mg/day and 10.9401 mg/day
same,UAER (mg/day) at Week 2,[4]; individual mice,0.7796 mg/day and 9.402 mg/day and 12.4793 mg/day and 1.127 mg/day and 0.5679 mg/day and 1.491 mg/day and 1.407 mg/day and 1.719 mg/day
same,UAER (mg/day) at Week 3,[4]; individual mice,5.801 mg/day and 4.3025 mg/day and 1.247 mg/day and 2.019 mg/day and 1.844 mg/day and 4.699 mg/day
same,UACR (mg/mg) at Week 1,[4]; [8],5.748 mg/mg and 5.722 mg/mg and 28.9118 mg/mg and 21.9395 mg/mg and 21.4656 mg/mg and 1.415 mg/mg and 15.8208 mg/mg and 5.683 mg/mg and 7.266 mg/mg and 18.781 mg/mg
same,UACR (mg/mg) at Week 3,[4]; [8],7.871 mg/mg and 8.029 mg/mg and 3.677 mg/mg and 3.863 mg/mg and 2.8993 mg/mg and 7.734 mg/mg
same,Serum Cystatin C,[4]; individual mice,0.9323 µg/mL and 2.095 µg/mL and 2.201 µg/mL and 1.815 µg/mL and 2.053 µg/mL and 1.1273 µg/mL and 1.429 µg/mL and 1.517 µg/mL and 1.562 µg/mL and 2.118 µg/mL
same,BUN,[4]; [8],245 mg/dL and 215 mg/dL and 265 mg/dL and 205 mg/dL and 330 mg/dL and 255 mg/dL and 170 mg/dL and 210 mg/dL
same,Serum Creatinine,[4]; [8],2.46 µg/mL and 1.88 µg/mL and 2.93 µg/mL and 2.22 µg/mL and 2.77 µg/mL and 2.85 µg/mL and 2.01 µg/mL and 5.03 µg/mL and 2.87 µg/mL
same,Serum Cystatin C,[4]; mean ± SEM,1.68 ± 0.14 µg/mL
same,UACR,"[4]; week 1, mean ± SEM",13.28 ± 2.928 mg/mg
same,UACR,"[4]; week 3, mean ± SEM",5.679 ± 0.99 mg/mg
same,UAER,[2]; Week 1,"9.38 ± 7.70, p=0.27 mg/day"
same,UAER,[2]; Week 2,"7.72 ± 6.37, p=0.06 mg/day"
same,UAER,[2]; Week 4,"1.74 ± 2.49, p=0.02 mg/day"
same,UACR (mg/mg) at Week 1,[2],0.2531 mg/mg and 1.465 mg/mg and 2.285 mg/mg and 73.9074 mg/mg and 1.319 mg/mg and 7.089 mg/mg and 0.4551 mg/mg and 1.07 mg/mg
same,UACR (mg/mg) at Week 4,[2],0.751 mg/mg and 2.804 mg/mg and 0.2303 mg/mg and 0.9337 mg/mg and 0.4088 mg/mg and 0.9456 mg/mg
same,UAER (mg/day) at Week 1,[2],0.1519 mg/day and 0.9615 mg/day and 2.137 mg/day and 63.0549 mg/day and 1.2792 mg/day and 6.0897 mg/day and 0.4778 mg/day and 0.9119 mg/day
same,UAER (mg/day) at Week 2,[2],0.4333 mg/day and 5.515 mg/day and 1.464 mg/day and 44.8051 mg/day and 0.7469 mg/day and 7.145 mg/day and 0.2974 mg/day and 1.3574 mg/day
same,UAER (mg/day) at Week 4,[2],1.13 mg/day and 3.156 mg/day and 0.298 mg/day and 1.221 mg/day and 0.2117 mg/day and 1.028 mg/day
same,UACR,[2]; week one,10.98 ± 9.02 mg/mg
same,UACR (mg/mg) at Week 1,[5],20.0842 mg/mg and 22.2965 mg/mg and 25.3406 mg/mg and 40.1693 mg/mg and 41.555 mg/mg and 302.958 mg/mg and 55.6444 mg/mg and 187.49 mg/mg and 117.091 mg/mg and 7.322 mg/mg
same,UACR (mg/mg) at Week 2,[5],56.294 mg/mg and 76.9257 mg/mg and 96.611 mg/mg and 232.005 mg/mg and 248.91 mg/mg and 18.6549 mg/mg and 102.568 mg/mg and 35.7503 mg/mg
same,UAER (mg/day) at Week 1,[5],10.1862 mg/day and 10.9954 mg/day and 11.0332 mg/day and 14.9575 mg/day and 18.3446 mg/day and 113.025 mg/day and 29.5364 mg/day and 126.741 mg/day and 54.0627 mg/day and 5.677 mg/day
same,UAER (mg/day) at Week 2,[5],28.1393 mg/day and 36.5424 mg/day and 35.6435 mg/day and 176.989 mg/day and 173.035 mg/day and 14.0491 mg/day and 53.4766 mg/day and 17.1116 mg/day
same,UAER,[6]; Week 1,"39.46 ± 14.14, p=0.16 mg/day"
same,UAER,[6]; Week 2,"66.87 ± 23.99, p=0.52 mg/day"
same,BUN,[6]; [9],100 mg/dL and 80 mg/dL and 65 mg/dL and 70 mg/dL and 85 mg/dL and 125 mg/dL and 75 mg/dL
same,Serum Creatinine,[6]; [9],0.927 µg/mL and 1.08 µg/mL and 1.05 µg/mL and 1.06 µg/mL and 0.956 µg/mL and 1.21 µg/mL and 0.91 µg/mL and 1.09 µg/mL and 1.14 µg/mL and 1.35 µg/mL
